Some test systems named below: A498 renal; COLO 205 colon; HCT-116 colon; HCT-15 colon; HT29 colon; LXFL 529 NSCLC; M19-MEL melanoma; MALME-3M melanoma; NCI-H522 lung; OVCAR-5 ovarian; SF-539 CNS; SN12C renal; UO-31 renal; HL-60(TB) leukemia; NCI-H226 lung; NCI-H23 lung; TK-10 renal; UACC-62 melanoma; HS 578T breast.
Common to all, as to assay: NCI tumour cell line growth inhibition, 48 h

SMILES strings stand for the structures. Several values for one entry are separate records, joined by “and”; a condition that tells them apart may be missing. Identical values can stand only once.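 Method: 48-hour compound exposure of cells in 96-well plates, five concentrations, linear interpolation of endpoints. TGI marks complete inhibition of growth.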 Bounds are passed on as bounds.

Regarding `N#Cc1ccc([N+](=O)[O-])cc1NC(N)=S`, the TGI in the experiment with A498 renal is more than 100 µM; in the experiment with COLO 205 colon, more than 100 µM; with HCT-116 colon, more than 100 µM; in the experiment with HCT-15 colon it was more than 100 µM; with HT29 colon, more than 100 µM; in the experiment on LXFL 529 NSCLC, 32.6 µM. Moreover, the TGI with M19-MEL melanoma, in the experiment with MALME-3M melanoma, with NCI-H522 lung, with OVCAR-5 ovarian, in the experiment with SF-539 CNS and with SN12C renal was more than 100 µM in each case. Moreover, the TGI in the experiment with UO-31 renal was more than 100 µM.

For `O=Cc1ccccc1CCn1c(=O)c2cc3c(=O)n(CCc4ccccc4C=O)c(=O)c3cc2c1=O`, the TGI in the experiment with A498 renal, in the experiment with HCT-116 colon, in the experiment on HCT-15 colon, in the experiment on HL-60(TB) leukemia, with HT29 colon and in the experiment on LXFL 529 NSCLC was more than 100 µM throughout. For the same compound, the TGI in the experiment with MALME-3M melanoma, in the experiment with NCI-H226 lung, in the experiment with NCI-H23 lung, in the experiment with NCI-H522 lung, in the experiment on SF-539 CNS and in the experiment on SN12C renal was more than 100 µM throughout. Further, the TGI in the experiment with TK-10 renal, with UACC-62 melanoma and with UO-31 renal was more than 100 µM in each case.

As for `Nc1nc(SCCNC(=O)CCc2ccc(O)c(I)c2)nc2c1ncn2C1OC(CO)C(O)C1O` (stereo not given), the TGI in the experiment on A498 renal, in the experiment on COLO 205 colon, with HCT-116 colon, with HCT-15 colon, in the experiment on HL-60(TB) leukemia and in the experiment with HT29 colon was more than 100 µM throughout. Moreover, the TGI with LXFL 529 NSCLC, with M19-MEL melanoma, in the experiment on MALME-3M melanoma, in the experiment with NCI-H226 lung, in the experiment with NCI-H23 lung and in the experiment with NCI-H522 lung was more than 100 µM in each case. Further, the TGI in the experiment with OVCAR-5 ovarian, with SF-539 CNS, with SN12C renal, with TK-10 renal and in the experiment on UACC-62 melanoma was more than 100 µM throughout.

Turning to `CC(C)CNCCc1ccccn1`, the TGI in the experiment on A498 renal, in the experiment with COLO 205 colon, in the experiment on HCT-116 colon, in the experiment on HCT-15 colon, with HL-60(TB) leukemia and in the experiment on HS 578T breast was more than 100 µM throughout. Also, the TGI in the experiment on HT29 colon, with MALME-3M melanoma, in the experiment on NCI-H226 lung, with NCI-H23 lung, in the experiment on NCI-H522 lung and in the experiment on OVCAR-5 ovarian was more than 100 µM each time. Further, the TGI in the experiment with SN12C renal, in the experiment on TK-10 renal, in the experiment with UACC-62 melanoma and in the experiment on UO-31 renal was more than 100 µM in each case.

As for `C1=CC=C2NCCc3cccc(c3)CCNC3=CC=CC=CC3=NCCCCCCN=C2C=C1`, the TGI was 38.8 µM in the experiment with COLO 205 colon; 56.3 µM in the experiment with HCT-15 colon; 20.9 µM in the experiment with HL-60(TB) leukemia; more than 100 µM in the experiment with HT29 colon; 23.6 µM with LXFL 529 NSCLC; 30.3 µM in the experiment with M19-MEL melanoma. Moreover, the TGI in the experiment with MALME-3M melanoma was more than 100 µM; in the experiment on NCI-H226 lung it was 86 µM; in the experiment on NCI-H23 lung, 48.3 µM; in the experiment with NCI-H522 lung, 47.2 µM; in the experiment with OVCAR-5 ovarian, 47.8 µM; in the experiment with SF-539 CNS, 23.5 µM. Besides, the TGI with SN12C renal is more than 100 µM; with UACC-62 melanoma, 50.7 µM; with UO-31 renal, 89.1 µM.

Regarding `CC1=C(SCCO)C(=O)c2ccccc2C1=O`, the TGI in the experiment with A498 renal was 30.6 µM; in the experiment with COLO 205 colon, 24.1 µM; in the experiment with HCT-116 colon, 17.4 µM; with HCT-15 colon, 25.3 µM; in the experiment on HL-60(TB) leukemia, more than 100 µM; with HS 578T breast it was 40.4 µM. Besides, the TGI was 38.7 µM in the experiment on HT29 colon; 27.3 µM with MALME-3M melanoma; 29.1 µM with NCI-H226 lung; 30.4 µM in the experiment with NCI-H23 lung; 14.6 µM in the experiment with NCI-H522 lung; 33.6 µM with OVCAR-5 ovarian. Also, the TGI was 24.9 µM with SF-539 CNS; 29.7 µM in the experiment with SN12C renal; 30.4 µM in the experiment on TK-10 renal; 31.7 µM in the experiment with UACC-62 melanoma; 20.3 µM in the experiment with UO-31 renal.

On to `CC[C@@]1(O)C[C@H](OC2CC(N(C)C)C(OC3CC(O)C(OC4CCC(=O)C(C)O4)C(C)O3)C(C)O2)c2c(cc3c(c2O)C(=O)c2c(O)cccc2C3=O)C1C(=O)OC` (stereo not given in full), for which the TGI is 0.213 µM in the experiment with A498 renal; 1.2 µM and 3.13 µM in the experiment with HCT-15 colon; 0.618 µM with HS 578T breast; 1.42 µM in the experiment with HT29 colon; 1.68 µM with LXFL 529 NSCLC; 0.799 µM in the experiment with M19-MEL melanoma. In addition, the TGI in the experiment on MALME-3M melanoma was 0.0948 µM and 0.569 µM; in the experiment with NCI-H23 lung, 0.635 µM; in the experiment on OVCAR-5 ovarian it was 3.11 µM and 1.56 µM; in the experiment on UACC-62 melanoma, 0.26 µM and 0.527 µM.

As for `O=c1oc2cc(O)ccc2c2oc3cc(O)ccc3c12`, the TGI with A498 renal was 3.4 µM; in the experiment with COLO 205 colon it was 72.5 µM; in the experiment with HCT-116 colon, 70.2 µM; in the experiment on HCT-15 colon, more than 125 µM; in the experiment on HL-60(TB) leukemia it was more than 125 µM; in the experiment with HT29 colon, more than 125 µM. For the same compound, the TGI with M19-MEL melanoma was more than 125 µM; in the experiment with MALME-3M melanoma, more than 125 µM; in the experiment with NCI-H226 lung, more than 125 µM; with NCI-H23 lung, more than 125 µM; with NCI-H522 lung it was 31.9 µM; with OVCAR-5 ovarian it was more than 125 µM. Also, the TGI with SF-539 CNS was 122 µM; with SN12C renal, more than 88.7 µM; in the experiment with UACC-62 melanoma it was more than 125 µM; in the experiment on UO-31 renal, more than 117 µM.

As for `CC(C)C1=CC2=CC[C@@H]3[C@](C)(CCC[C@@]3(C)C(=O)O)[C@H]2CC1`, the TGI was more than 100 µM with A498 renal; 71.9 µM with COLO 205 colon; more than 80.2 µM in the experiment on HCT-116 colon; more than 87 µM in the experiment on HCT-15 colon; more than 88.3 µM with HL-60(TB) leukemia; 45.9 µM in the experiment with HT29 colon. Also, the TGI was more than 100 µM with LXFL 529 NSCLC; more than 100 µM in the experiment on M19-MEL melanoma; more than 100 µM with MALME-3M melanoma; more than 100 µM with NCI-H226 lung; more than 89.9 µM in the experiment on NCI-H23 lung; more than 100 µM with NCI-H522 lung. Also, the TGI with OVCAR-5 ovarian is more than 100 µM; in the experiment with SF-539 CNS it was more than 100 µM; with SN12C renal it was more than 100 µM; in the experiment on TK-10 renal, more than 100 µM; in the experiment with UACC-62 melanoma, 68.3 µM; in the experiment with UO-31 renal, more than 82.7 µM.

As to `C=CCn1c(=O)c(Br)nn(CCOCP(=O)(OCC)OCC)c1=O`, the TGI in the experiment with A498 renal, in the experiment on COLO 205 colon, in the experiment on HCT-15 colon, in the experiment on HL-60(TB) leukemia, in the experiment with HS 578T breast and in the experiment with MALME-3M melanoma was more than 100 µM throughout. In addition, the TGI in the experiment with NCI-H226 lung, in the experiment on NCI-H23 lung, with NCI-H522 lung, in the experiment on OVCAR-5 ovarian, with SF-539 CNS and with SN12C renal was more than 100 µM throughout. In the experiment on UO-31 renal, this compound had a TGI of more than 100 µM.

Regarding `COc1nc2ccc(CNc3ccc(C(=O)NC(CCC(=O)O)C(=O)O)cc3)cc2nc1OC` (stereo not given), the TGI with A498 renal, in the experiment with COLO 205 colon, in the experiment on HCT-15 colon, with HL-60(TB) leukemia, in the experiment with HS 578T breast and in the experiment with HT29 colon was more than 100 µM in each case. In addition, the TGI in the experiment with MALME-3M melanoma, in the experiment with NCI-H226 lung, with NCI-H23 lung, in the experiment on NCI-H522 lung, with OVCAR-5 ovarian and in the experiment with SN12C renal was more than 100 µM each time. Moreover, the TGI in the experiment with TK-10 renal, with UACC-62 melanoma and with UO-31 renal was more than 100 µM each time.
